According to patent US10308686B2, “Gamma-AApeptides with potent and broad-spectrum antimicrobial activity” (priority 2012, dated 2019):
Converted amounts (≈) assume the structure as drawn.

Legend:
[1] = test system: human red blood cells (hRBC's); assay: Hemolysis assay; type: cell-based; settings: for Hemolysis HC10 / Hemolysis HC50: red cells of human
Protocol: Freshly drawn human red blood cells (hRBC's) with additive K2 EDTA (spray-dried) were washed with PBS buffer several times and centrifuged at 1000 g for 10 min until a clear supernatant was observed. The hRBC's were resuspended in 1×PBS to get a 5% v/v suspension. Two-fold serial dilutions of γ-AApeptides dissolved in 1×PBS from 250 μg/ml through 1.6 μg/ml were added to a sterile 96-well plate to make up a total volume of 50 μL in each well. Then 50 μL of 5% v/v hRBC solution was added to make up a total volume of 100 μL in each well. The 0% hemolysis point and 100% hemolysis point were determined in 1×PBS and 0.2% Triton-X-100, respectively (Patch et al., 2003). The plate was then incubated at 37° C. for 1 h and centrifuged at 3500 rpm for 10 min. The supernatant (30 μL) was diluted with 100 μL of 1×PBS and absorption was detected by measuring the optical density at 360 nm by Biotek Synergy HT microtiter plate reader. % hemolysis was determined by the following equation: % hemolysis=(Abssample−AbsPBS)/(AbsTriton−AbsPBS)×100 H50 is the concentration of γ-AApeptide amphiphiles at which 50% hemolysis was observed. The highest concentration tested in the hemolytic assay was 500 μg/ml. 7. Fluorescence Microscopy
The sequences shown in FIG. 12 were also evaluated via hemolytic assays. Freshly drawn human red blood cells (hRBC's) with additive K2 EDTA (spray-dried) were washed with PBS buffer several times and centrifuged at 1000 g for 10 min until a clear supernatant was observed. The hRBC's were resuspended in 1×PBS to get a 5% v/v suspension. Two-fold serial dilutions of lipidated γ-AApeptides dissolved in 1×PBS from 1 mg/ml through 6.3 μg/ml were added to sterile 96-well plates to make up a total volume of 50 μL in each well. Then 50 μL of 5% v/v hRBC solution was added to make up a total volume of 100 μL in each well. The 0% hemolysis point and 100% hemolysis point were determined in 1×PBS and 0.2% Triton-X-100, respectively (Patch et al., 2003). The plate was then incubated at 37° C. for 1 h and centrifuged at 3500 rpm for 10 min. The supernatant (30 μL) was diluted with 100 μL of 1×PBS and absorption was detected by measuring the optical density at 360 nm with a Biotek Synergy HT microtiter plate reader. % hemolysis was determined by the following equation: % hemolysis=(Abs sample−Abs PBS)/(Abs Triton−Abs PBS)×100

[2] = test system: K. pneumoniae (ATCC 13383)
[3] = test system: multi-drug resistant P. aeruginosa ATCC 27853; settings: ATCC 27853
[4] = test system: multi-drug resistant S. epidermidis (RP62A); settings: for MIC, Gram positive S. epidermidis: Table 7; for MIC, S. epidermidis (multi-drug resistant): Table 3
[5] = test system: vancomycin-resistant E. faecalis (ATCC 700802); settings: for MIC, Gram positive E. faecalis: Table 7; for MIC, E. faecalis (vancomycin-resistant): Table 3
[6] = test system: methicillin-resistant S. aureus (ATCC 33592); settings: for MIC, Gram positive S. aureus: Table 7; for MIC, S. aureus (methicillin-resistant): Table 3
C. albicans (ATCC 10231) = settings: ATCC 10231

Structure (SMILES) | Hemolysis HC10 [1] | Hemolysis HC50 [1] | MIC, Gram negative E. coli (E. coli (JM109)) | MIC, Gram negative K. pneumoniae [2] | MIC, Gram negative P. aeruginosa [3] | MIC, Gram positive B. subtilis (B. subtilis (BR151)) | MIC, Gram positive S. epidermidis [4] | MIC, Gram positive E. faecalis [5] | MIC, Gram positive S. aureus [6] | MIC, Fungi, C. albicans (C. albicans (ATCC 10231)) | Hemolysis (H50) [1] | MIC, E. coli (E. coli (JM109)) | MIC, K. pneumoniae (causing pneumonia) [2] | MIC, P. aeruginosa [3] | MIC, B. subtilis (B. subtilis (BR151)) | MIC, S. epidermidis (multi-drug resistant) [4] | MIC, E. faecalis (vancomycin-resistant) [5] | MIC, S. aureus (methicillin-resistant) [6] | MIC, Fungi C. albicans (C. albicans (ATCC 10231))
CCCCCCCCCCCCCCCC(=O)N[C@@H](CCCCN)CN(CC(=O)N[C@@H](CCCCN)CN(CC(N)=O)C(=O)CCCN)C(=O)CCCN [Sequence 3] | 40 µg/mL | 300 µg/mL | 30 µg/mL (≈ 39.1 µM) | 20 µg/mL (≈ 26 µM) | 20 µg/mL (≈ 26 µM) | 1.5 µg/mL (≈ 1.95 µM) | 2.5 µg/mL (≈ 3.25 µM) | 8 µg/mL (≈ 10.4 µM) | 5 µg/mL (≈ 6.51 µM) | 2 µg/mL (≈ 2.6 µM) |  |  |  |  |  |  |  |  | 
CCCCCCCCCCCCCCCC(=O)N[C@@H](CCCCN)CN(CC(=O)N[C@@H](CCCCN)CN(CC(=O)N[C@@H](CCCCN)CN(CC(N)=O)C(=O)CCCN)C(=O)CCCN)C(=O)CCCN [Sequence 4] | 300 µg/mL | > 500 µg/mL | 20 µg/mL (≈ 19.5 µM) | >50 µg/mL | 15 µg/mL (≈ 14.6 µM) | 1.5 µg/mL (≈ 1.46 µM) | 2 µg/mL (≈ 1.95 µM) | 10 µg/mL (≈ 9.76 µM) | 5 µg/mL (≈ 4.88 µM) | 2 µg/mL (≈ 1.95 µM) |  |  |  |  |  |  |  |  | 
CCCCCCCCCCCCCCCC(=O)N[C@@H](C)CN(CC(=O)N[C@@H](C)CN(CC(=O)N[C@@H](CCCCN)CN(CC(=O)N[C@@H](CCCCN)CN(CC(=O)N[C@@H](CCCCN)CN(CC(N)=O)C(=O)CCCN)C(=O)CCCN)C(=O)CCCN)C(C)=O)C(C)=O [Sequence 5] | 200 µg/mL | > 500 µg/mL | 2.5 µg/mL (≈ 1.87 µM) | 15 µg/mL (≈ 11.2 µM) | 15 µg/mL (≈ 11.2 µM) | 2.5 µg/mL (≈ 1.87 µM) | 10 µg/mL (≈ 7.48 µM) | 10 µg/mL (≈ 7.48 µM) | 10 µg/mL (≈ 7.48 µM) | 7.5 µg/mL (≈ 5.61 µM) |  |  |  |  |  |  |  |  | 
CCCCCCCCCCCCCCCC(=O)N[C@@H](C)CN(CC(=O)N[C@@H](C)CN(CC(=O)N[C@@H](CCC(=O)O)CN(CC(=O)N[C@@H](CCC(=O)O)CN(CC(=O)N[C@@H](CCC(=O)O)CN(CC(N)=O)C(=O)CC(=O)O)C(=O)CC(=O)O)C(=O)CC(=O)O)C(C)=O)C(C)=O [Sequence 7] | 250 µg/mL | > 500 µg/mL | >100 µg/mL | >100 µg/mL | >100 µg/mL | >100 µg/mL | >100 µg/mL | >100 µg/mL | >100 µg/mL | >100 µg/mL |  |  |  |  |  |  |  |  | 
CCCCCCCCCCCCCCCC(=O)N[C@@H](C)CN(CC(=O)N[C@@H](C)CN(CC(=O)N[C@@H](Cc1ccccc1)CN(CC(=O)N[C@@H](Cc1ccccc1)CN(CC(=O)N[C@@H](Cc1ccccc1)CN(CC(N)=O)C(=O)CC(=O)O)C(=O)CC(=O)O)C(=O)CC(=O)O)C(C)=O)C(C)=O [Sequence 8] | 200 µg/mL | > 500 µg/mL | >100 µg/mL | >100 µg/mL | >100 µg/mL | >100 µg/mL | >100 µg/mL | >100 µg/mL | >100 µg/mL | >100 µg/mL |  |  |  |  |  |  |  |  | 
CC(=O)N(CC(=O)N[C@@H](C)CN(CC(=O)N[C@@H](CC(C)C)CN(CC(=O)N[C@@H](CC(C)C)CN(CC(=O)N[C@@H](CC(C)C)CN(CC(N)=O)C(=O)CCCN)C(=O)CCCN)C(=O)CCCN)C(C)=O)C[C@H](C)N [Sequence 9] | 120 µg/mL | > 500 µg/mL | >100 µg/mL | >100 µg/mL | >100 µg/mL | >100 µg/mL | >100 µg/mL | >100 µg/mL | >100 µg/mL | >100 µg/mL |  |  |  |  |  |  |  |  | 
CCCCCCCC/C=C\CCCCCCCC(=O)N[C@@H](CCCCN)CN(CC(N)=O)C(=O)CCCN [Sequence 10] | 40 µg/mL | 100 µg/mL | 2.5 µg/mL (≈ 4.65 µM) | 35 µg/mL (≈ 65.1 µM) | 3 µg/mL (≈ 5.58 µM) | 2 µg/mL (≈ 3.72 µM) | 2 µg/mL (≈ 3.72 µM) | 2.5 µg/mL (≈ 4.65 µM) | 4 µg/mL (≈ 7.44 µM) | 2 µg/mL (≈ 3.72 µM) |  |  |  |  |  |  |  |  | 
CCCCCCCC/C=C\CCCCCCCC(=O)N[C@@H](CCCCN)C(=O)N[C@@H](CCCCN)CN(CC(N)=O)C(=O)CCCN [Sequence 11] | 80 µg/mL | > 500 µg/mL | 10 µg/mL (≈ 15 µM) | 40 µg/mL (≈ 60.1 µM) | 15 µg/mL (≈ 22.5 µM) | 2 µg/mL (≈ 3 µM) | 2 µg/mL (≈ 3 µM) | 2.5 µg/mL (≈ 3.75 µM) | 5 µg/mL (≈ 7.51 µM) | 5 µg/mL (≈ 7.51 µM) |  |  |  |  |  |  |  |  | 
CCCCCCCC/C=C\CCCCCCCC(=O)N[C@@H](CCCCN)CN(CC(=O)N[C@@H](CCCCN)CN(CC(N)=O)C(=O)CCCN)C(=O)CCCN [Sequence 12] | 250 µg/mL | > 500 µg/mL | 10 µg/mL (≈ 12.6 µM) | 15 µg/mL (≈ 18.9 µM) | 3 µg/mL (≈ 3.78 µM) | 2.5 µg/mL (≈ 3.15 µM) | 4 µg/mL (≈ 5.04 µM) | 5 µg/mL (≈ 6.3 µM) | 5 µg/mL (≈ 6.3 µM) | 2 µg/mL (≈ 2.52 µM) |  |  |  |  |  |  |  |  | 
CCCCCCCC/C=C\CCCCCCCC(=O)N[C@@H](C)CN(CC(=O)N[C@@H](C)CN(CC(=O)N[C@@H](CC(C)C)CN(CC(=O)N[C@@H](CC(C)C)CN(CC(=O)N[C@@H](CC(C)C)CN(CC(N)=O)C(=O)CCCN)C(=O)CCCN)C(=O)CCCN)C(C)=O)C(C)=O [Sequence 13] | 100 µg/mL | > 500 µg/mL | 3 µg/mL (≈ 2.28 µM) | 3 µg/mL (≈ 2.28 µM) | 3 µg/mL (≈ 2.28 µM) | 3 µg/mL (≈ 2.28 µM) | 3 µg/mL (≈ 2.28 µM) | 4 µg/mL (≈ 3.04 µM) | 3 µg/mL (≈ 2.28 µM) | 3 µg/mL (≈ 2.28 µM) |  |  |  |  |  |  |  |  | 
CCCCCCCCCCCCCCCC(=O)N[C@@H](C)CN(CC(=O)N[C@@H](CCCCN)CN(CC(=O)N[C@@H](Cc1ccccc1)CN(CC(=O)N[C@@H](Cc1ccccc1)CN(CC(N)=O)C(=O)CCc1c[nH]cn1)C(=O)CCc1c[nH]cn1)C(=O)CCCN)C(C)=O [γAA3] |  |  |  |  |  |  |  |  |  |  | 150 µg/mL | 1.6 to 3.1 µg/mL | 12.5 to 25 µg/mL | 3 to 6 µg/mL | 1.6 to 3.1 µg/mL | 1.6 to 3.1 µg/mL | 1.6 to 3.1 µg/mL | 1.6 to 3.1 µg/mL | 1.6 to 3.1 µg/mL
CC(C)CCC(=O)N1CC(=O)N[C@@H](Cc2ccccc2)CN(C(=O)CCC(C)C)CC(=O)N[C@@H](CCCCN)CN(C(=O)CCc2ccccc2)CC(=O)N[C@@H](CCCCN)CN(C(=O)CCc2ccccc2)CC(=O)N[C@@H](CCCCN)CN(C(=O)CCc2ccccc2)CC(=O)N[C@@H](CCCCN)CN(C(=O)CCc2ccccc2)CC(=O)N[C@@H](Cc2ccccc2)CN(CC(N)=O)C(=O)CCC(=O)N[C@@H](Cc2ccccc2)C1 [γAA5] |  |  |  |  |  |  |  |  |  |  | 100 µg/mL | 12.5 to 25 µg/mL | 8 µg/mL (≈ 3.85 µM) | 8 µg/mL (≈ 3.85 µM) | 1 µg/mL (≈ 0.481 µM) | 2 µg/mL (≈ 0.962 µM) | 5 µg/mL (≈ 2.4 µM) | 1 µg/mL (≈ 0.481 µM) | 2 µg/mL (≈ 0.962 µM)
